Source: patent US9738648B2, “Pyridines, pyrimidines, and pyrazines, as BTK inhibitors and uses thereof” (Merck Patent GmbH, priority 2013, dated 2017)

What follows are molecules tested against T1, full-length human BTK (Homo sapiens, UniProt Q06187) (assay: BTK IC50 Enzyme Assay (Assay A), microfluidic off-chip mobility shift kinase assay). Conditions: kinKDR peptide substrate, 90 min at 27° C.
T1 construct: 2.5× stocks of full-length human BTK (08-080) from CarnaBio USA, Inc; purchased CarnaBio USA, Inc., Natick, Mass; 08-080
T1 sequence (Q06187 whole entry): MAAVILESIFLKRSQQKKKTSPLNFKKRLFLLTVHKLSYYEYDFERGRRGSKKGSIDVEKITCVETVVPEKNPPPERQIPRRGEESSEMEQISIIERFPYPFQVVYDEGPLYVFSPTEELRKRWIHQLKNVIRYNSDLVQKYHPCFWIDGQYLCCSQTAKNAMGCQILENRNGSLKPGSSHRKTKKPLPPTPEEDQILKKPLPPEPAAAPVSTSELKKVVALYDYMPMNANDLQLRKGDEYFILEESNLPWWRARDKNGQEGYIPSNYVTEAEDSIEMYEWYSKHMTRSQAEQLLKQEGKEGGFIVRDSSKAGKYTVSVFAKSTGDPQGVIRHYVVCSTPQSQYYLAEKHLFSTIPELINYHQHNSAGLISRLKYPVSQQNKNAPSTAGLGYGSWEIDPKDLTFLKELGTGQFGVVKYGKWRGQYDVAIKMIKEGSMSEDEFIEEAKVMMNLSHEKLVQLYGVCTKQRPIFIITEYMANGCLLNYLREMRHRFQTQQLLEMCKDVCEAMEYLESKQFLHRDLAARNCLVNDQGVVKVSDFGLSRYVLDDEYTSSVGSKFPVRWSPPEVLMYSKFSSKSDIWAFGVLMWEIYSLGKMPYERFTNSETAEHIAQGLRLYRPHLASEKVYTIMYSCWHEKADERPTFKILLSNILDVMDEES
Format: biochemical
Protocol: BTK IC50 Enzyme Assay (Assay A)
The following describes a microfluidic, off-chip mobility shift kinase assay used to measure inherent potency of compounds against BTK enzyme.
2.5× stocks of full-length human BTK (08-080) from CarnaBio USA, Inc., Natick, Mass., 1.6×ATP and appropriate kinKDR peptide substrate (FITC-AHA-EEPLYWSFPAKKK10 NH2) were prepared in kinase reaction buffer consisting of 25 mM MgCl2, 0.015% Brij-35 (30%), 100 mM Hepes, pH 7.5, and 10 mM DTT.
5 uL of enzyme buffer and 7.5 uL of ATP/kinKDR peptide substrate mix were added to Matrix (#115304) 384-well, sterile, polypropylene plates (Thermo Fisher Scientific, 15 Hudson, N.H.) with 125 nL of serially diluted compounds prepared in 100% DMSO, and incubated for 90 min. at 27° C. Following the incubation period, reactions were stopped by adding 60 uL stop buffer consisting of 100 mM Hepes, pH 7.5, 0.015% Brij-35 (30%), 0.277% Coating Reagent #3 (Caliper Life Sciences, Mountain View, Calif.), 5% DMSO. Stopped reactions were monitored at −2 PSI, −3000 V/−700 V in a LabChip 3000 plate 20 reader from Caliper Life Sciences, a PerkinElmer Company (Hopkinton, Mass.), and the activity was measured by off-chip mobility shift assay measuring the charge/mass difference between substrate and product resulting from peptide phosphorilation. IC50 and efficacy were determined by plotting log [Inhibitor] vs. % Activity in GeneData Screener (Basel, Switzerland).

Compound	IC50 [nM]
C=CC(=O)N1CC(n2ccc3ncnc(Oc4ccc(Oc5ccccc5)cc4)c32)C1 [Compound 3, 1-(3-(4-(4-phenoxyphenoxy)-5H-pyrrolo[3,2-d]pyrimidin-5-yl)azetidin-1-yl)prop-2-en-1-one]	< 100
C=CC(=O)N[C@H]1C[C@@H](n2ccc3ncnc(Oc4ccc(Oc5ccccc5)cc4)c32)C1 [Compound 10, N-(cis-3-(4-(4-phenoxyphenoxy)-5H-pyrrolo[3,2-d]pyrimidin-5-yl)cyclobutyl)acrylamide]	< 100
CN(C)C/C=C/C(=O)N1CC(n2ccc3ncc(-c4ccc(Oc5ccccc5)cc4)cc32)C1 [Compound 13, (E)-4-(dimethylamino)-1-(3-(6-(4-phenoxyphenyl)-1H-pyrrolo[3,2-b]pyridin-1-yl)azetidin-1-yl)but-2-en-1-one]	< 100
O=C(CCCCCNc1ccc([N+](=O)[O-])c2nonc12)NCCN1CCN(C/C=C/C(=O)N2CC(n3ccc4ncnc(Oc5ccc(Oc6ccccc6)cc5)c43)C2)CC1 [Compound 31, (E)-6-((7-nitrobenzo[c][1,2,5]oxadiazol-4-yl)amino)-N-(2-(4-(4-oxo-4-(3-(4-(4-phenoxyphenoxy)-5H-pyrrolo[3,2-d]pyrimidin-5-yl)azetidin-1-yl)but-2-en-1-yl)piperazin-1-yl)ethyl)hexanamide]	< 100
C=CC(=O)N1CCC(n2ccc3ncnc(-c4cccc(Oc5ccccc5)c4)c32)CC1 [Compound 50, 1-(4-(4-(3-phenoxyphenyl)-5H-pyrrolo[3,2-d]pyrimidin-5-yl)piperidin-1-yl)prop-2-en-1-one]	> 5000
C=C(C)C(=O)N1CC(n2ccc3ncnc(Oc4ccc(Oc5ccccc5)cc4)c32)C1 [Compound 51, 2-methyl-1-(3-(4-(4-phenoxyphenoxy)-5H-pyrrolo[3,2-d]pyrimidin-5-yl)azetidin-1-yl)prop-2-en-1-one]	> 5000
C=CC(=O)N1CC(n2ccc3ncc(-c4cnn(Cc5ccccc5)c4)nc32)C1 [Compound 52, 1-(3-(3-(1-benzyl-1H-pyrazol-4-yl)-5H-pyrrolo[2,3-b]pyrazin-5-yl)azetidin-1-yl)prop-2-en-1-one]	100 to 1000
CCC/C=C(\C#N)C(=O)N1CCC(n2ccc3ncnc(Oc4ccc(Oc5ccccc5)cc4)c32)CC1 [Compound 55, (E)-2-(4-(4-(4-phenoxyphenoxy)-5H-pyrrolo[3,2-d]pyrimidin-5-yl)piperidine-1-carbonyl)hex-2-enenitrile]	1000 to 5000
N#CN1CCC(n2ccc3ncnc(Oc4ccc(Oc5ccccc5)cc4)c32)CC1 [Compound 56, 4-(4-(4-phenoxyphenoxy)-5H-pyrrolo[3,2-d]pyrimidin-5-yl)piperidine-1-carbonitrile]	1000 to 5000
N#CNC(=O)N1CCC(n2ccc3ncnc(Oc4ccc(Oc5ccccc5)cc4)c32)CC1 [Compound 57, N-cyano-4-(4-(4-phenoxyphenoxy)-5H-pyrrolo[3,2-d]pyrimidin-5-yl)piperidine-1-carboxamide]	100 to 1000
N#CN1CCC(Cn2ccc3ncnc(Oc4ccc(Oc5ccccc5)cc4)c32)C1 (stereo not shown) [Compound 58, 3-[[4-(4-phenoxyphenoxy)-5H-pyrrolo[3,2-d]pyrimidin-5-yl]methyl]pyrrolidine-1-carbonitrile]	1000 to 5000
N#CN1CCC(Cn2ccc3ncnc(Oc4ccc(Oc5ccccc5)cc4)c32)CC1 [Compound 59, 4-[[4-(4-phenoxyphenoxy)-5H-pyrrolo[3,2-d]pyrimidin-5-yl]methyl]piperidine-1-carbonitrile]	> 5000
N#CN1CCCC1Cn1ccc2ncnc(Oc3ccc(Oc4ccccc4)cc3)c21 (stereo not shown) [Compound 61, 2-[[4-(4-phenoxyphenoxy)-5H-pyrrolo[3,2-d]pyrimidin-5-yl]methyl]pyrrolidine-1-carbonitrile]	1000 to 5000
N#CN1CCCCC1Cn1ccc2ncnc(Oc3ccc(Oc4ccccc4)cc3)c21 (stereo not shown) [Compound 62, 2-[[4-(4-phenoxyphenoxy)-5H-pyrrolo[3,2-d]pyrimidin-5-yl]methyl]piperidine-1-carbonitrile]	1000 to 5000
N#CN1CCCC(Cn2ccc3ncnc(Oc4ccc(Oc5ccccc5)cc4)c32)C1 (stereo not shown) [Compound 63, 3-[[4-(4-phenoxyphenoxy)-5H-pyrrolo[3,2-d]pyrimidin-5-yl]methyl]piperidine-1-carbonitrile]	> 5000
N#CN1CCCC(n2ccc3ncnc(Oc4ccc(Oc5ccccc5)cc4)c32)C1 (stereo not shown) [Compound 64, 3-[4-(4-phenoxyphenoxy)-5H-pyrrolo[3,2-d]pyrimidin-5-yl]piperidine-1-carbonitrile]	100 to 1000
N#CN1CCC1Cn1ccc2ncnc(Oc3ccc(Oc4ccccc4)cc3)c21 (stereo not shown) [Compound 65, 2-[[4-(4-phenoxyphenoxy)-5H-pyrrolo[3,2-d]pyrimidin-5-yl]methyl]azetidine-1-carbonitrile]	1000 to 5000

Further lines, results first:

IC50 [nM]	Compound
1000 to 5000	N#CN1CC(Cn2ccc3ncnc(Oc4ccc(Oc5ccccc5)cc4)c32)C1 [Compound 66, 3-[[4-(4-phenoxyphenoxy)-5H-pyrrolo[3,2-d]pyrimidin-5-yl]methyl]azetidine-1-carbonitrile]
100 to 1000	CN(C#N)[C@H]1C[C@H](n2ccc3ncnc(Oc4ccc(Oc5ccccc5)cc4)c32)C1 [Compound 67, (1R,3R)—N-cyano-N-methyl-3-[4-(4-phenoxyphenoxy)-5H-pyrrolo[3,2-d]pyrimidin-5-yl]cyclobutan-1-amine]
1000 to 5000	N#CN1CC(n2ccc3ncnc(Oc4ccc(Oc5ccccc5)cc4)c32)C1 [Compound 68, 3-[4-(4-phenoxyphenoxy)-5H-pyrrolo[3,2-d]pyrimidin-5-yl]azetidine-1-carbonitrile]
1000 to 5000	N#CN1CC2(CC(n3ccc4ncnc(Oc5ccc(Oc6ccccc6)cc5)c43)C2)C1 [Compound 69, 6-[4-(4-phenoxyphenoxy)-5H-pyrrolo[3,2-d]pyrimidin-5-yl]-2-azaspiro[3.3]heptane-2-carbonitrile]
100 to 1000	CN(C#N)[C@H]1CC[C@H](n2ccc3ncnc(Oc4ccc(Oc5ccccc5)cc4)c32)CC1 [Compound 70, (1R,4R)—N-cyano-N-methyl-4-[4-(4-phenoxyphenoxy)-5H-pyrrolo[3,2-d]pyrimidin-5-yl]cyclohexan-1-amine]
> 5000	N#CN1CC[C@@H](n2ccc3ncnc(Oc4ccc(Oc5ccccc5)cc4)c32)C1 [Compound 71, (3R)-3-[4-(4-phenoxyphenoxy)-5H-pyrrolo[3,2-d]pyrimidin-5-yl]pyrrolidine-1-carbonitrile]
< 100	NCCOCCOCCOCCOCCC(=O)NCCN1CCN(C/C=C/C(=O)N2CCC(n3ccc4ncnc(Oc5ccc(Oc6ccccc6)cc5)c43)CC2)CC1 [Compound 73, (E)-1-amino-N-(2-(4-(4-oxo-4-(4-(4-(4-phenoxyphenoxy)-5H-pyrrolo[3,2-d]pyrimidin-5-yl)piperidin-1-yl)but-2-en-1-yl)piperazin-1-yl)ethyl)-3,6,9,12-tetraoxapentadecan-15-amide]
100 to 1000	CC1=CC(C)=[N+]2C1=C(c1ccc(NC(=S)NCCOCCOCCOCCOCCC(=O)NCCN3CCN(C/C=C/C(=O)N4CCC(n5ccc6ncnc(Oc7ccc(Oc8ccccc8)cc7)c65)CC4)CC3)cc1)c1c(C)cc(C)n1[B-]2(F)F [Compound 74, (E)-1-((4-(5,5-difluoro-1,3,7,9-tetramethyl-5H-414,514-dipyrrolo[1,2-c:2′,1′-f][1,3,2]diazaborinin-10-yl)phenyl)amino)-N-(2-(4-(4-oxo-4-(4-(4-(4-phenoxyphenoxy)-5H-pyrrolo[3,2-d]pyrimidin-5-yl)piperidin-1-yl)but-2-en-1-yl)piperazin-1-yl)ethyl)-1-thioxo-5,8,11,14-tetraoxa-2-azaheptadecan-17-amide]
> 5000	N#CN1CC[C@@H](n2ccc3ncnc(Oc4ccc(Oc5ccc(F)cc5F)cc4)c32)C1 [Compound 75]
100 to 1000	N#CN1CC[C@H](n2ccc3ncnc(Oc4ccc(Oc5ccc(F)cc5F)cc4)c32)C1 [Compound 76]

Each molecule was assayed on anti-IgM-induced expression of CD69 in freshly isolated human peripheral blood mononuclear cells (PBMCs) (assay: Assay B: inhibition of anti-IgM-induced expression of CD69 on CD19 positive cells (B cells) in human PBMCs). Conditions: PBMC, 1 h pre-treatment, overnight anti-human IgM stimulation, CD69 on CD19 positive cells by flow cytometry, read-out: Assay B (mol/L (M)).
Format: cell-based
Protocol: Btk is critical for mediating the signalling of B cell antigen receptor (BCR) after anti-IgM stimulation. Based on this principle, a functional cell-based assay was established to determine the potency of compounds at inhibiting anti-IgM-induced expression of CD69, a downstream BCR signalling event, in freshly isolated human peripheral blood mononuclear cells (PBMCs). In the assay, a 90 μl PBMC suspension containing 2.5×10^5 cells was pre-treated with 10 μl of test compound at various concentrations for an hour, and then incubated overnight (approximately 16-18 hours) with 5 μl 420 μg/ml affiniPure F(ab′)2 fragment goat anti-human IgM Fc fragment per well (Dianova, Cat. No.: 109-006-129). After the incubation, the cells were washed and immunostained with an APC labelled mouse anti-human CD69 (BD Biosciences; clone: FN50), a PerCP-Cy5.5 labelled mouse anti-human CD19 (BD Biosciences; clone: SJ25C1) and a FITC-labelled mouse anti-human CD3 (BD Biosciences; clone: HIT3a), and fixed for flow cytometric analysis of CD69 expression on CD19 positive cells (B cells). The percentage of CD69 expressing CD19 positive cells was plotted against the concentrations of test compounds to obtain a concentration response curve, and calculate an IC50 value as a measure of the potency of test compounds in the assay.

Compound	IC50 [M]
C=CC(=O)N1CC(n2ccc3ncnc(Oc4ccc(Oc5ccccc5)cc4)c32)C1 [Compound 3, 1-(3-(4-(4-phenoxyphenoxy)-5H-pyrrolo[3,2-d]pyrimidin-5-yl)azetidin-1-yl)prop-2-en-1-one]	< 1e-07
C=CC(=O)N[C@H]1C[C@@H](n2ccc3ncnc(Oc4ccc(Oc5ccccc5)cc4)c32)C1 [Compound 10, N-(cis-3-(4-(4-phenoxyphenoxy)-5H-pyrrolo[3,2-d]pyrimidin-5-yl)cyclobutyl)acrylamide]	1e-07 to 1e-06
CN(C)C/C=C/C(=O)N1CC(n2ccc3ncc(-c4ccc(Oc5ccccc5)cc4)cc32)C1 [Compound 13, (E)-4-(dimethylamino)-1-(3-(6-(4-phenoxyphenyl)-1H-pyrrolo[3,2-b]pyridin-1-yl)azetidin-1-yl)but-2-en-1-one]	1e-07 to 1e-06
O=C(CCCCCNc1ccc([N+](=O)[O-])c2nonc12)NCCN1CCN(C/C=C/C(=O)N2CC(n3ccc4ncnc(Oc5ccc(Oc6ccccc6)cc5)c43)C2)CC1 [Compound 31, (E)-6-((7-nitrobenzo[c][1,2,5]oxadiazol-4-yl)amino)-N-(2-(4-(4-oxo-4-(3-(4-(4-phenoxyphenoxy)-5H-pyrrolo[3,2-d]pyrimidin-5-yl)azetidin-1-yl)but-2-en-1-yl)piperazin-1-yl)ethyl)hexanamide]	1e-06 to 5e-06
